According to paper PMC9841981 (Journal of Medicinal Chemistry, 2022):

What was measured:
[1] = system: P. aeruginosa ΔpvdFΔpchA with additional deletion of pfeA; assay: Growth kinetics, additional deletion of pfeA; assay type: cell-based, Pseudomonas aeruginosa; settings: 10 μM, CAA medium, 30 °C, 48 h, three independent biological replicates
[2] = system: P. aeruginosa ΔpvdFΔpchA strain; assay: Antimicrobial susceptibility assay; settings: iron-restricted CAA medium, MIC assay, 24 and 48 h
[3] = system: P. aeruginosa; assay: MIC assay in CAA medium supplemented with ferric iron; assay type: cell-based, Pseudomonas aeruginosa; settings: CAA medium supplemented with ferric iron (100 μM)

C#CCCCC(=O)Nc1c(CNC(=O)c2cccc(O)c2O)cc(CNC(=O)c2cccc(O)c2O)cc1CNC(=O)c1cccc(O)c1O [Compound 4, Alkyne-MECAM-OH]
growth in the strain lacking PfeA (OD 600 nm) [1]: delayed growth slightly

CNC(C)C1CCC(N)C(OC2C(N)CC(N)C(OC3OCC(C)(O)C(NC)C3O)C2O)O1 (stereo not drawn) [Gentamicin]
growth inhibition / antimicrobial activity (in words) [2]: exhibited an activity in the expected range

C#CCNC(=O)CN1CCN(CC(=O)NCCNC(=O)c2cccc(O)c2O)CCN(CC(=O)NCCNC(=O)c2cccc(O)c2O)CCN(CC(=O)NCCNC(=O)c2cccc(O)c2O)CC1 [Compound 2, Alkyne-DOTAM-OH]
antimicrobial effect in the presence of excess ferric iron [3]: lost their antimicrobial effect
